What was measured:
FLT1 (VEGFR1) = FLT1 (VEGFR1) (Homo sapiens, UniProt P17948); test: SelectScreen kinase profiling, FLT1; format: biochemical; conditions: read-out: Enzyme inhibitory activity IC50
MAP2K6 (MKK6) = MAP2K6 (MKK6) (Homo sapiens, UniProt P52564); test: SelectScreen kinase profiling, MAP2K6; format: biochemical; conditions: read-out: Enzyme inhibitory activity IC50
FGFR3 = FGFR3 (Homo sapiens, UniProt P22607); test: SelectScreen kinase profiling, FGFR3; format: biochemical; conditions: read-out: Enzyme inhibitory activity IC50
LYN B = LYN B (Homo sapiens, UniProt P07948); test: SelectScreen kinase profiling, LYN B; format: biochemical; conditions: read-out: Enzyme inhibitory activity IC50
MAPK3 (ERK1) = MAPK3 (ERK1) (Homo sapiens, UniProt P27361); test: SelectScreen kinase profiling, MAPK3; format: biochemical; conditions: read-out: Enzyme inhibitory activity IC50
TYK2 = TYK2 (Homo sapiens, UniProt P29597); test: SelectScreen kinase profiling, TYK2; format: biochemical; conditions: read-out: Enzyme inhibitory activity IC50
FGFR1 = FGFR1 (Homo sapiens, UniProt P11362); test: SelectScreen kinase profiling, FGFR1; format: biochemical; conditions: read-out: Enzyme inhibitory activity IC50
TGFBR2 = TGFBR2 (Homo sapiens, UniProt P37173); test: SelectScreen kinase profiling, TGFBR2; format: biochemical; conditions: read-out: Enzyme inhibitory activity IC50
JAK1 = JAK1 (Homo sapiens, UniProt P23458); test: SelectScreen kinase profiling, JAK1; format: biochemical; conditions: read-out: Enzyme inhibitory activity IC50
JAK3 = JAK3 (Homo sapiens, UniProt P52333); test: SelectScreen biochemical kinase profiling, JAK3; conditions: JAK3, cell free; read-out: Enzyme inhibitory activity IC50
Description: (§1) The in vitro kinase inhibitory assays in the presence of compounds 323-1 and 323-2 were carried out according to the Z′-LYTE™ Screening and LanthaScreen Eu Kinase Binding Assays Experimental Procedures in Invitrogen (ThermoFisher Scientific, Waltham, Mass., USA). For the Z′-LYTE™ Screening profiling for FRAP1 (mTOR), JAK3, and LTK (TYK1), a mixture containing the test compounds in 100% DMSO, 2.4 μL Kinase buffer (50 mM HEPES pH 7.5, 0.01% BRIJ-35, 10 mM MgCl2, 1 mM EGTA), 5 μL 2× Peptide/Kinase Mixture, 2.5 μL 4×ATP Solution were added into black 384-well low volume NBS and bar-coded corning plate (Corning Cat. #4514) and shake the plate for 30 seconds. After incubation at RT for 60 min, 5 μL Development Reagent Solution was added into plate and shake the plate for 30 seconds, followed by Development Reaction incubation at RT for 60 min. Read on fluorescence plate reader and analyze the data. […]
(§2) Inhibition by compounds 323-1 and 323-2 of MAP2K4 (MEK4) and TGFBR1 (ALK5) was determined by […]. Inhibition by compounds 323-1 and 323-2 of FRAP1 (mTOR), JAK3, and LTK (TYK1) was determined by […] using the Adapta Universal Kinase Assay (Life Technologies). […]

FLT4 (VEGFR3) = FLT4 (VEGFR3) (Homo sapiens, UniProt P35916); test: SelectScreen kinase profiling, FLT4; format: biochemical; conditions: read-out: Enzyme inhibitory activity IC50
AKT1 (PKB alpha) = AKT1 (PKB alpha) (Homo sapiens, UniProt P31749); test: SelectScreen kinase profiling, AKT1; format: biochemical; conditions: read-out: Enzyme inhibitory activity IC50
SRC = SRC (Homo sapiens, UniProt P12931); test: SelectScreen kinase profiling, SRC; format: biochemical; conditions: read-out: Enzyme inhibitory activity IC50
PDGFRB (PDGFR beta) = PDGFRB (PDGFR beta) (Homo sapiens, UniProt P09619); test: SelectScreen kinase profiling, PDGFRB; format: biochemical; conditions: read-out: Enzyme inhibitory activity IC50
MAPK10 (JNK3) = MAPK10 (JNK3) (Homo sapiens, UniProt P53779); test: SelectScreen kinase profiling, MAPK10; format: biochemical; conditions: read-out: Enzyme inhibitory activity IC50
PDGFRA (PDGFR alpha) = PDGFRA (PDGFR alpha) (Homo sapiens, UniProt P16234); test: SelectScreen kinase profiling, PDGFRA; format: biochemical; conditions: read-out: Enzyme inhibitory activity IC50
SRC N1 = SRC N1 (Homo sapiens, UniProt P12931); test: SelectScreen kinase profiling, SRC N1; format: biochemical; conditions: read-out: Enzyme inhibitory activity IC50
AKT2 (PKB beta) = AKT2 (PKB beta) (Homo sapiens, UniProt P31751); test: SelectScreen kinase profiling, AKT2; format: biochemical; conditions: read-out: Enzyme inhibitory activity IC50
FRAP1 (mTOR) = FRAP1 (mTOR) (Homo sapiens, UniProt P42345); test: SelectScreen biochemical kinase profiling, FRAP1 (mTOR); conditions: cell free, read-out: Enzyme inhibitory activity IC50
Description: as §1, §2

EGFR (ErbB1) = EGFR (ErbB1) (Homo sapiens, UniProt P00533); test: SelectScreen kinase profiling, EGFR; format: biochemical; conditions: read-out: Enzyme inhibitory activity IC50
PRKCD (PKC delta) = PRKCD (PKC delta) (Homo sapiens, UniProt Q05655); test: SelectScreen kinase profiling, PRKCD; format: biochemical; conditions: read-out: Enzyme inhibitory activity IC50
HCK = HCK (Homo sapiens, UniProt P08631); test: SelectScreen kinase profiling, HCK; format: biochemical; conditions: read-out: Enzyme inhibitory activity IC50
MET (cMet) = MET (cMet) (Homo sapiens, UniProt P08581); test: SelectScreen kinase profiling, MET; format: biochemical; conditions: read-out: Enzyme inhibitory activity IC50
FGFR4 = FGFR4 (Homo sapiens, UniProt P22455); test: SelectScreen kinase profiling, FGFR4; format: biochemical; conditions: read-out: Enzyme inhibitory activity IC50
KDR (VEGFR2) = KDR (VEGFR2) (Homo sapiens, UniProt P35968); test: SelectScreen kinase profiling, KDR; format: biochemical; conditions: read-out: Enzyme inhibitory activity IC50
MAPK8 (JNK1) = MAPK8 (JNK1) (Homo sapiens, UniProt P45983); test: SelectScreen kinase profiling, MAPK8; format: biochemical; conditions: read-out: Enzyme inhibitory activity IC50
MAP2K4 (MEK4) = MAP2K4 (MEK4) (Homo sapiens, UniProt P45985); test: SelectScreen kinase profiling, MAP2K4 (MEK4); format: binding; conditions: cell free, read-out: Enzyme inhibitory activity IC50
Description: as §1, §2

FGFR2 = FGFR2 (Homo sapiens, UniProt P21802); test: SelectScreen kinase profiling, FGFR2; format: biochemical; conditions: read-out: Enzyme inhibitory activity IC50
ERBB4 (HER4) = ERBB4 (HER4) (Homo sapiens, UniProt Q15303); test: SelectScreen kinase profiling, ERBB4; format: biochemical; conditions: read-out: Enzyme inhibitory activity IC50
MAPK1 (ERK2) = MAPK1 (ERK2) (Homo sapiens, UniProt P28482); test: SelectScreen kinase profiling, MAPK1; format: biochemical; conditions: read-out: Enzyme inhibitory activity IC50
Sequence of MAPK1 (ERK2) (P28482 whole entry): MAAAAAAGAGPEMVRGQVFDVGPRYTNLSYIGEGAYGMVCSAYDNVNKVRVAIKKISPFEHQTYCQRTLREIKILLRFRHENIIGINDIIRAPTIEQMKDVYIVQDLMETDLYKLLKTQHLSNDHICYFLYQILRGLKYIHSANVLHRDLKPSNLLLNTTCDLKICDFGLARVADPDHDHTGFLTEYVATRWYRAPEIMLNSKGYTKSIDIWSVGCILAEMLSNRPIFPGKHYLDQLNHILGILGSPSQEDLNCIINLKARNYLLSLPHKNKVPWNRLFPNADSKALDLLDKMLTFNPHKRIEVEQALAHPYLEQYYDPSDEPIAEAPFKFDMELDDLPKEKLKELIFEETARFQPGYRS

Sequence of AKT2 (PKB beta) (P31751 whole entry): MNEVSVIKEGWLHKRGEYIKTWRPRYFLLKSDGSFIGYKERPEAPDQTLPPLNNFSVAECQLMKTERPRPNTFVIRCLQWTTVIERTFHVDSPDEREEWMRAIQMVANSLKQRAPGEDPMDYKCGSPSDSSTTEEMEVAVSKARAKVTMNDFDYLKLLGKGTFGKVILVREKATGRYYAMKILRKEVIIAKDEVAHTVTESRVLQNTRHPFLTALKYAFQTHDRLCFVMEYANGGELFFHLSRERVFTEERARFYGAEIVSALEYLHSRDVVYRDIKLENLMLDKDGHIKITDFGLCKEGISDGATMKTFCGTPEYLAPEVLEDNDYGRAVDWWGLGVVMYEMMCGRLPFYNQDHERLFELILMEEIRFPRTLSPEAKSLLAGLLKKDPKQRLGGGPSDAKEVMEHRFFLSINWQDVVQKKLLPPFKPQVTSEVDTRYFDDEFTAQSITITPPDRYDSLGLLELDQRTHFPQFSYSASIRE
Sequence of MAP2K6 (MKK6) (P52564 whole entry): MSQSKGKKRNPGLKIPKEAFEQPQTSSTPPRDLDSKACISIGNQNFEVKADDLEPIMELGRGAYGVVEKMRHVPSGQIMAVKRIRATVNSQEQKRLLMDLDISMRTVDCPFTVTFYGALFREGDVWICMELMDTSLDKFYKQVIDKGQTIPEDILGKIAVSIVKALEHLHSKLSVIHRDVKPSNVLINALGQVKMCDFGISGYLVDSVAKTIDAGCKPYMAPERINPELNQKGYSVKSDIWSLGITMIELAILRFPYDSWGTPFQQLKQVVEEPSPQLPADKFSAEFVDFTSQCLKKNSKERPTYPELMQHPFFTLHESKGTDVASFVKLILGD
Sequence of TGFBR2 (P37173 23-567): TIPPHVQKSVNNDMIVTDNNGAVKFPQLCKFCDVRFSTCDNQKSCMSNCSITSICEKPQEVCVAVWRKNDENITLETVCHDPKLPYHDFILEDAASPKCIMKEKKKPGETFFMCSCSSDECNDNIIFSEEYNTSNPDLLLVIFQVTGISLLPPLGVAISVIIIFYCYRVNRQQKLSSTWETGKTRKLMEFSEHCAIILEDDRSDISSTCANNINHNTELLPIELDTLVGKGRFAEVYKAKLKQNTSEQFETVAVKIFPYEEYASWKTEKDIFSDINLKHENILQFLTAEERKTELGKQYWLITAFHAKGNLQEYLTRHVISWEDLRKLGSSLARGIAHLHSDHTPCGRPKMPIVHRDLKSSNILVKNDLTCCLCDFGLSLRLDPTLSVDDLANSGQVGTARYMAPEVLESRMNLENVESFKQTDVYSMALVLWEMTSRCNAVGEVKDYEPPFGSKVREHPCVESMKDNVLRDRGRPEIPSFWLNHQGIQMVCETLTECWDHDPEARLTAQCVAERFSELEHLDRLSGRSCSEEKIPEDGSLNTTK
Sequence of FGFR1 (P11362 22-822): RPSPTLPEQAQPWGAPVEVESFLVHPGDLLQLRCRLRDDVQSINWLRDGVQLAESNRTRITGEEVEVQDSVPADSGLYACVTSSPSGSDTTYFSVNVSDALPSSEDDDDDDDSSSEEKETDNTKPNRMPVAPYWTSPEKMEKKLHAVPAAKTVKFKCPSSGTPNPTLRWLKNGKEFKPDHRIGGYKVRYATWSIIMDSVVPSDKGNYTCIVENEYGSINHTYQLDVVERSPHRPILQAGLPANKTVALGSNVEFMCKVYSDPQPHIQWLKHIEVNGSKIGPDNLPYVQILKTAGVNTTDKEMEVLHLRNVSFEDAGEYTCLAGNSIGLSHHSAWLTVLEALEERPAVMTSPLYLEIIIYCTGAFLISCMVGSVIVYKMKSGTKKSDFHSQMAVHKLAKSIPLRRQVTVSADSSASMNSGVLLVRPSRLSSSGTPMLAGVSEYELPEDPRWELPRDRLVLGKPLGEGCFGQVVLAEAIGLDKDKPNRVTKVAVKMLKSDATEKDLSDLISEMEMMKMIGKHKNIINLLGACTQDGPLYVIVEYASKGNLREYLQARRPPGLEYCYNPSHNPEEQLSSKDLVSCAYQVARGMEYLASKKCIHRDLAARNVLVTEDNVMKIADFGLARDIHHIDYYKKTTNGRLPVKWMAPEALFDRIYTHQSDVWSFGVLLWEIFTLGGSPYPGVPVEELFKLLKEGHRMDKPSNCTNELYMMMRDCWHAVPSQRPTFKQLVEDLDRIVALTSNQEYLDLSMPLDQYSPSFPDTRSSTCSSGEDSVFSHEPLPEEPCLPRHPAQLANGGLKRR
Sequence of FGFR3 (P22607 23-806): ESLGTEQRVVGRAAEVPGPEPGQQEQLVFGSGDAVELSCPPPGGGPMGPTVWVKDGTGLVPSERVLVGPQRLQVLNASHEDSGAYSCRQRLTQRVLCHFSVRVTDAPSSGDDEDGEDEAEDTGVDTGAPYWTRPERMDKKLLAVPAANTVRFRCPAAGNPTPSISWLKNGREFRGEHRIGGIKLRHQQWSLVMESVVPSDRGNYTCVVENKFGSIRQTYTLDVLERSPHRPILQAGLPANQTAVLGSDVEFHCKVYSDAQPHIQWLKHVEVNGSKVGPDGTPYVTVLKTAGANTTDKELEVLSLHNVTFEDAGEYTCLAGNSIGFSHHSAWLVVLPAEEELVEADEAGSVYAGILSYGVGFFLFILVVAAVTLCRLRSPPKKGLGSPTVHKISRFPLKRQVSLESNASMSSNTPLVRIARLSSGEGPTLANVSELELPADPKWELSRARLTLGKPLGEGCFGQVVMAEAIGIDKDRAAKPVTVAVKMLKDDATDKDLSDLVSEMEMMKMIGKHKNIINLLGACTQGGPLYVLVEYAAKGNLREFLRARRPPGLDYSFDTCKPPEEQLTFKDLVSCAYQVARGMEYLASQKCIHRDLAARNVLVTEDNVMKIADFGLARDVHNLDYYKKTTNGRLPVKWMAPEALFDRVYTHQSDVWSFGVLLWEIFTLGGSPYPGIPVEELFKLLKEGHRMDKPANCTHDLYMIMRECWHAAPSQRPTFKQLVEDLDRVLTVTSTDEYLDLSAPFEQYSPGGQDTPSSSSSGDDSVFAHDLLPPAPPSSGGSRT
Sequence of JAK3 (P52333 whole entry): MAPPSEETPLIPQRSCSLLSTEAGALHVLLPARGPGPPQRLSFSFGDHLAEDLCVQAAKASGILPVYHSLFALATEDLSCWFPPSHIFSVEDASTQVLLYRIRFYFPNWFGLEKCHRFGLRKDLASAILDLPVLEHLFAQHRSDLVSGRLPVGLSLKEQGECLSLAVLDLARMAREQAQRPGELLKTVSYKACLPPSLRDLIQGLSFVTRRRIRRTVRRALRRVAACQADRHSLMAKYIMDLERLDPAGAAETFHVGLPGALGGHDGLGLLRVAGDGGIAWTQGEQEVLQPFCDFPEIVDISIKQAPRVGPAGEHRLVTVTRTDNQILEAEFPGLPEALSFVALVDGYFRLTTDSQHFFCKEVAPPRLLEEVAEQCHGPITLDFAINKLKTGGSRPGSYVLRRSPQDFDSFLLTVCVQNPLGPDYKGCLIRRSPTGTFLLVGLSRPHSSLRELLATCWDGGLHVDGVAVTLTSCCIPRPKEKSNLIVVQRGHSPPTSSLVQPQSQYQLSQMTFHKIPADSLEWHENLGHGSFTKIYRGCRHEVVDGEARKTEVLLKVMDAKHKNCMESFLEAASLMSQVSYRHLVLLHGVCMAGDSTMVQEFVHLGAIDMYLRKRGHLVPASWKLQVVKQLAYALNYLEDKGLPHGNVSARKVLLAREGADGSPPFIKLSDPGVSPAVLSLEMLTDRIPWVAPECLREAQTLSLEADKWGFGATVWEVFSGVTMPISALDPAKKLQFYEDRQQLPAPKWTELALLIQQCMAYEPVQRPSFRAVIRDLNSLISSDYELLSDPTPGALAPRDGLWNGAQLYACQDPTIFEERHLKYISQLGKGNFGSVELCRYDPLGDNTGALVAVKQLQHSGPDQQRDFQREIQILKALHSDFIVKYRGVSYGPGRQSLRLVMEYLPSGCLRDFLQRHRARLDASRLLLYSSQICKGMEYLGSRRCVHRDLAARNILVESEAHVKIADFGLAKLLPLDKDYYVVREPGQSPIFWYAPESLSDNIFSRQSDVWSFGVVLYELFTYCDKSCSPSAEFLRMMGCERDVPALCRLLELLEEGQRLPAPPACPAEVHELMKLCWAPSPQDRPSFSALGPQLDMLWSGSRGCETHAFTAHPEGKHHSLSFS
Sequence of MAPK8 (JNK1) (P45983 whole entry): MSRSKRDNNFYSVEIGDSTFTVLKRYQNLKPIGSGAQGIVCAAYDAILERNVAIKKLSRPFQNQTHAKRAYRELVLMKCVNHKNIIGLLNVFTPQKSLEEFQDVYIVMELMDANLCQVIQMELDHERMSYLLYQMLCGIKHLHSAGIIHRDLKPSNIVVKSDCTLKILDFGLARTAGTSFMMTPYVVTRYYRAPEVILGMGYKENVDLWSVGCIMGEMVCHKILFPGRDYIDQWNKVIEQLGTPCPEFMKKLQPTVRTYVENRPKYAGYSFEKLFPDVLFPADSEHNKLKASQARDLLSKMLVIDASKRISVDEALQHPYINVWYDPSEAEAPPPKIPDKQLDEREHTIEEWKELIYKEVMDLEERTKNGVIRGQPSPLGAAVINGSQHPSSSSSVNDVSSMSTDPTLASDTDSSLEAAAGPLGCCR

| SMILES | IC50 (FLT1 (VEGFR1)) [µM] | IC50 (MAP2K6 (MKK6)) [µM] | IC50 (FGFR3) [µM] | IC50 (LYN B) [µM] | IC50 (MAPK3 (ERK1)) [µM] | IC50 (TYK2) [µM] | IC50 (FGFR1) [µM] | IC50 (TGFBR2) [µM] | IC50 (JAK1) [µM] | IC50 (JAK3) [µM] | IC50 (FLT4 (VEGFR3)) [µM] | IC50 (AKT1 (PKB alpha)) [µM] | IC50 (SRC) [µM] | IC50 (PDGFRB (PDGFR beta)) [µM] | IC50 (MAPK10 (JNK3)) [µM] | IC50 (PDGFRA (PDGFR alpha)) [µM] | IC50 (SRC N1) [µM] | IC50 (AKT2 (PKB beta)) [µM] | IC50 (FRAP1 (mTOR)) [µM] | IC50 (EGFR (ErbB1)) [µM] | other results |
| --- | --- | --- | --- | --- | --- | --- | --- | --- | --- | --- | --- | --- | --- | --- | --- | --- | --- | --- | --- | --- | --- |
| C[C@@H]1CCC(c2cc3c4c(cncc4c2)[C@H](C)C3)=C1C=O [323-1, (15R,2R)-Delavatine A] | > 20 | > 20 | > 20 | > 20 | > 20 | > 20 | > 20 | > 20 | > 20 | 4.26 | > 20 | > 20 | > 20 | > 20 | > 20 | > 20 | > 20 | > 20 | 6.13 | > 20 | IC50 (PRKCD (PKC delta)): > 20 µM; IC50 (HCK): > 20 µM; IC50 (MET (cMet)): > 20 µM; IC50 (FGFR4): > 20 µM; IC50 (KDR (VEGFR2)): > 20 µM; IC50 (MAPK8 (JNK1)): > 20 µM; IC50 (MAP2K4 (MEK4)): 2.01 µM; IC50 (FGFR2): > 20 µM; IC50 (ERBB4 (HER4)): > 20 µM; IC50 (MAPK1 (ERK2)): > 20 µM |
| C[C@@H]1CCC(c2cc3c4c(cncc4c2)[C@@H](C)C3)=C1C=O [323-2, (15S,2R)-Delavatine A] | > 20 | > 20 | > 20 | > 20 | > 20 | > 20 | > 20 | > 20 | > 20 | 11.6 | > 20 | > 20 | > 20 | > 20 | > 20 | > 20 | > 20 | > 20 | 7.52 | > 20 | IC50 (PRKCD (PKC delta)): > 20 µM; IC50 (HCK): > 20 µM; IC50 (MET (cMet)): > 20 µM; IC50 (FGFR4): > 20 µM; IC50 (KDR (VEGFR2)): > 20 µM; IC50 (MAPK8 (JNK1)): > 20 µM; IC50 (MAP2K4 (MEK4)): 1.22 µM; IC50 (FGFR2): > 20 µM; IC50 (ERBB4 (HER4)): > 20 µM; IC50 (MAPK1 (ERK2)): > 20 µM |
